Measurements: patent US4091211A, “Cephalosporins” (Hoffmann-La Roche Inc., priority 1974, dated 1978)
Where a name gives a salt, the structure may show the parent alone.

Columns and labels:
Escherichia coli 1346 = test: antimicrobial activity, CD50 in the mouse upon subcutaneous injection, Escherichia coli 1346; assay type: in vivo
Source text: (§1) The results represent CD50 values in the mouse upon subcutaneous injection. In the table, compound A is (7R)-3- [[(1,4,5,6-tetrahydro-4-ethyl-5,6-dioxo-as-triazin-3-yl)-thio]methyl]-7-[2-(5-oxo-1,2,3-oxadiazolidin-3-yl)-acetamido]-3-cephem-4-carboxylic acid sodium salt and compound B is (7R)-3- [[(1,4,5,6-tetrahydro-4-ethyl-5,6-dioxo-as-triazin-3-yl)-thio]methyl]-7-[2(1-H-tetrazol-1-yl)-acetamido]-3-cephem-4-carboxylic acid sodium salt.

[1] = tested on: Staphylococcus aureus 887 (Penicillin-sensitive); test: antimicrobial activity, CD50 in the mouse upon subcutaneous injection, Staphylococcus aureus 887; assay type: in vivo
Source text: as §1

[2] = tested on: Staphylococcus aureus Schoch (Penicillin-sensitive); test: antimicrobial activity, CD50 in the mouse upon subcutaneous injection, Staphylococcus aureus Schoch; assay type: in vivo
Source text: as §1

[3] = acute toxicity (LD50 i.v. in the mouse); conditions: in vivo, iv

Compound	CD50 (Escherichia coli 1346) [mg/kg]	CD50 [1] [mg/kg]	CD50 [2] [mg/kg]	LD50 ([3]; mouse) [mg/kg]	LD50 ([3]; i.v. in the mouse, acute toxicity) [mg/kg]
CCn1c(SCC2=C(C(=O)O)N3C(=O)[C@@H](NC(=O)Cn4cnnn4)[C@H]3SC2)n[nH]c(=O)c1=O [B, (7R)-3-[[(1,4,5,6-tetrahydro-4-ethyl-5,6-dioxo-as-triazin-3-yl)-thio]methyl]-7-[2(1-H-tetrazol-1-yl)-acetamido]-3-cephem-4-carboxylic acid sodium salt]	0.9	3.2	0.6	1000 to 2000	–
CCn1c(SCC2=C(C(=O)O)N3C(=O)[C@@H](NC(=O)C[n+]4cc([O-])on4)[C@H]3SC2)n[nH]c(=O)c1=O [A, sodium salt]	0.38	5.5	0.25	–	2000 to 4000
